{
  "source": "ChEMBL document CHEMBL1128784",
  "about": "“Symmetry-based HIV Protease inhibitors: rational design of 2-methylbenzamides as novel P2/P2 ligands” (Bioorg Med Chem Lett, 1995)",
  "target": "Human immunodeficiency virus type 1 protease (Human immunodeficiency virus 1, UniProt Q72874)",
  "assay": "Inhibitory activity against HIV protease",
  "data": [
    {"smiles": "Cc1ccc(O)cc1C(=O)N[C@@H](Cc1ccccc1)[C@H](O)[C@H](O)[C@H](Cc1ccccc1)NC(=O)c1cc(O)ccc1C", "values": [
      {"measurement": "Ki", "value": 74, "unit": "nM"}
    ]},
    {"smiles": "Cc1c(N)cccc1C(=O)N[C@@H](Cc1ccccc1)[C@H](O)[C@H](O)[C@H](Cc1ccccc1)NC(=O)c1cccc(N)c1C", "values": [
      {"measurement": "Ki", "value": 2.5, "unit": "nM"}
    ]}
  ]
}
